Reference: ChEMBL document CHEMBL3885881, “DrugMatrix”

Species on record: Rattus norvegicus
Assay: DrugMatrix - Regimen: Daily Repeat
Assay type: toxicity, organism-based, Sprague-Dawley
Design: regimen Daily Repeat, gender Male, age 6-8 weeks
Conditions: in vivo, po, route oral GAVAGE; for POTASSIUM / SODIUM / TOTAL BILIRUBIN / TOTAL PROTEIN / URIC ACID / ALANINE AMINOTRANSFERASE / ALBUMIN / ALKALINE PHOSPHATASE / ASPARTATE AMINOTRANSFERASE / BLOOD UREA NITROGEN / CARBON DIOXIDE / CHLORIDE / CHOLESTEROL / CREATINE PHOSPHOKINASE / CREATININE / GLUCOSE / LACTATE DEHYDROGENASE / LIPASE / PHOSPHORUS: tissue Plasma
[1] = 60 mg/kg, 120 h, dose level Low, time 5 day, vehicle 100 % WATER
[2] = 600 mg/kg, 72 h, tissue Blood, dose level High, time 3 day, […]
[3] = 600 mg/kg, 72 h, tissue Blood, dose level High, time 3 day, vehicle 100 % WATER
[4] = 600 mg/kg, 72 h, dose level High, time 3 day, […]
[5] = 600 mg/kg, 72 h, dose level High, time 3 day, vehicle 100 % WATER

## ClC(Cl)Cl [CHLOROFORM]
[1]
  POTASSIUM: 6.14 MEQ/L
  SODIUM: 145.6 MEQ/L
  TOTAL BILIRUBIN: 0.1 mg/dL
  TOTAL PROTEIN: 6.3 G/DL
  URIC ACID: 1.5 mg/dL
[2]
  ABSOLUTE EOSINOPHIL: 29.6 CELLS/uL
  ABSOLUTE LYMPHOCYTE: 12329.2 CELLS/uL
  ABSOLUTE MONOCYTE: 476.6 CELLS/uL
  ABSOLUTE SEGMENTED NEUTROPHIL: 1764.6 CELLS/uL
  EOSINOPHIL: 0.2%
  ERYTHROCYTE COUNT: 7.17 x10E6/uL
  HEMATOCRIT: 43%
  HEMOGLOBIN: 15.88 G/DL
  LEUKOCYTE COUNT: 14.6 x10E3/uL
  LYMPHOCYTE: 84.4%
  MEAN CORPUSCULAR HEMOGLOBIN: 22.2 pg
  MEAN CORPUSCULAR HEMOGLOBIN CONCENTRATION: 37 G/DL
  MEAN CORPUSCULAR VOLUME: 60.02 fL
  MONOCYTE: 3.2%
  NEUTROPHIL: 12.2%
  PLATELET COUNT: 1301.6 x10E3/uL
[3]
  ABSOLUTE BASOPHIL: 0 CELLS/uL
  ABSOLUTE EOSINOPHIL: 0 CELLS/uL
  ABSOLUTE LYMPHOCYTE: 7700 CELLS/uL
  ABSOLUTE MONOCYTE: 77.67 CELLS/uL
  ABSOLUTE SEGMENTED NEUTROPHIL: 589 CELLS/uL
  BASOPHIL: 0%
  EOSINOPHIL: 0%
  ERYTHROCYTE COUNT: 6.05 x10E6/uL
  HEMATOCRIT: 38.4%
  HEMOGLOBIN: 14.97 G/DL
  LEUKOCYTE COUNT: 8.37 x10E3/uL
  LYMPHOCYTE: 88%
  MEAN CORPUSCULAR HEMOGLOBIN: 24.73 pg
  MEAN CORPUSCULAR HEMOGLOBIN CONCENTRATION: 38.97 G/DL
  MEAN CORPUSCULAR VOLUME: 63.43 fL
  MONOCYTE: 1.33%
  NEUTROPHIL: 10.67%
  NUCLEATED RED BLOOD CELLS: 0 /100WBC
  PLATELET COUNT: 1080.33 x10E3/uL
[4]
  ALANINE AMINOTRANSFERASE: 196 u/L
  ALBUMIN: 4.36 G/DL
  ALKALINE PHOSPHATASE: 902 u/L
  ASPARTATE AMINOTRANSFERASE: 462.4 u/L
  BLOOD UREA NITROGEN: 20.8 mg/dL
  CARBON DIOXIDE: 16.6 mmol/L
  CHLORIDE: 107.4 MEQ/L
  CHOLESTEROL: 77.6 mg/dL
  CREATINE PHOSPHOKINASE: 516 u/L
  CREATININE: 0.44 mg/dL
  GLUCOSE: 134.8 mg/dL
  LACTATE DEHYDROGENASE: 597.4 u/L
  LIPASE: 10.6 u/L
  PHOSPHORUS: 13.48 mg/dL
  POTASSIUM: 5.66 MEQ/L
  SODIUM: 144.48 MEQ/L
  TOTAL BILIRUBIN: 0.72 mg/dL
  TOTAL PROTEIN: 6.04 G/DL
  URIC ACID: 2.72 mg/dL
[5]
  ALANINE AMINOTRANSFERASE: 73.33 u/L
  ALBUMIN: 4.4 G/DL
  ALKALINE PHOSPHATASE: 416 u/L
  ASPARTATE AMINOTRANSFERASE: 103.67 u/L
  BLOOD UREA NITROGEN: 14.67 mg/dL
  CARBON DIOXIDE: 34.33 mmol/L
  CHLORIDE: 98.67 MEQ/L
  CHOLESTEROL: 81.67 mg/dL
  CREATINE PHOSPHOKINASE: 203.67 u/L
  CREATININE: 0.22 mg/dL
  GLUCOSE: 153.67 mg/dL
  LACTATE DEHYDROGENASE: 179 u/L
  LIPASE: 10.67 u/L
  PHOSPHORUS: 10 mg/dL
  POTASSIUM: 5.43 MEQ/L
